{
  "source": "PubChem BioAssay (NCI)",
  "test_in_all_cases": "growth of human tumour cells (NCI), 48 h",
  "key": {"CAKI-1 renal": {"system": "CAKI-1 renal"}, "EKVX NSCLC": {"system": "EKVX NSCLC"}, "HCC-2998 colon": {"system": "HCC-2998 colon"}, "HL-60(TB) leukemia": {"system": "HL-60(TB) leukemia"}, "HS 578T breast": {"system": "HS 578T breast"}, "M19-MEL melanoma": {"system": "M19-MEL melanoma"}, "MCF7 breast": {"system": "MCF7 breast"}, "MDA-MB-435": {"system": "MDA-MB-435"}, "NCI-H226 lung": {"system": "NCI-H226 lung"}, "OVCAR-4 ovarian": {"system": "OVCAR-4 ovarian"}, "SNB-78 CNS": {"system": "SNB-78 CNS"}, "SW-620 colon": {"system": "SW-620 colon"}},
  "note": "Several values for one entry are separate records, joined by “and”; a condition that tells them apart may be missing. Identical values can stand only once.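 Compound exposure: 48 hours, 5 concentrations, 96-well plates. Here, GI50 denotes the concentration required for 50% inhibition of growth. TGI marks complete inhibition of growth.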",
  "data": [
    {"smiles": "O=C1/C(=C/c2ccc(Cl)c(Cl)c2)CN(C(=O)CCN2CCOCC2)C/C1=C\\c1ccc(Cl)c(Cl)c1", "values": [
      {"measurement": "GI50", "setting": "CAKI-1 renal", "result": 579, "unit": "nM"},
      {"measurement": "TGI", "setting": "CAKI-1 renal", "result": "3400 nM and 3530 nM and 2030 nM"},
      {"measurement": "GI50", "setting": "EKVX NSCLC", "result": 1370, "unit": "nM"},
      {"measurement": "TGI", "setting": "EKVX NSCLC", "result": "4350 nM and 6410 nM and 3090 nM"},
      {"measurement": "GI50", "setting": "HCC-2998 colon", "result": 773, "unit": "nM"},
      {"measurement": "TGI", "setting": "HCC-2998 colon", "result": "3560 nM and 2080 nM"},
      {"measurement": "GI50", "setting": "HL-60(TB) leukemia", "result": "362 nM and 277 nM"},
      {"measurement": "TGI", "setting": "HL-60(TB) leukemia", "result": "1100 nM and 632 nM"},
      {"measurement": "TGI", "setting": "HS 578T breast", "result": "> 10000", "unit": "nM"},
      {"measurement": "GI50", "setting": "M19-MEL melanoma", "result": 1090, "unit": "nM"},
      {"measurement": "TGI", "setting": "M19-MEL melanoma", "result": "3000 nM and 2400 nM"},
      {"measurement": "TGI", "setting": "MCF7 breast", "result": 159, "unit": "nM"},
      {"measurement": "TGI", "setting": "MDA-MB-435", "result": 30.9, "unit": "nM"},
      {"measurement": "TGI", "setting": "NCI-H226 lung", "result": "4550 nM and 4150 nM"},
      {"measurement": "GI50", "setting": "OVCAR-4 ovarian", "result": 1560, "unit": "nM"},
      {"measurement": "GI50", "setting": "SNB-78 CNS", "result": 2220, "unit": "nM"},
      {"measurement": "TGI", "setting": "SNB-78 CNS", "result": "9930 nM and 6300 nM"},
      {"measurement": "GI50", "setting": "SW-620 colon", "result": "1390 nM and 229 nM and 249 nM"},
      {"measurement": "TGI", "setting": "SW-620 colon", "result": "3320 nM and 563 nM and 746 nM"}
    ]}
  ]
}
